ChEMBL document CHEMBL4229379, “Synthesis and structure-activity relationship of novel bisindole amidines active against MDR Gram-positive and Gram-negative bacteria” (Eur J Med Chem, 2018)

Columns and labels:
[1] = tested on: Staphylococcus epidermidis; assay: Antibacterial activity against methicillin-sensitive Staphylococcus epidermidis ATCC 12228 after 18 hrs by CLSI broth microdilution method; assay type: functional; settings: ATCC 12228, 18 h
[2] = tested on: Staphylococcus epidermidis; assay: Antibacterial activity against methicillin-resistant Staphylococcus epidermidis 12-8 after 18 hrs by CLSI broth microdilution method; assay type: functional; settings: 12-8, 18 h
[3] = tested on: Staphylococcus aureus; assay: Antibacterial activity against methicillin-sensitive Staphylococcus aureus ATCC 29213 after 18 hrs by CLSI broth microdilution method; assay type: functional; settings: ATCC 29213, 18 h
[4] = tested on: Staphylococcus aureus; assay: Antibacterial activity against methicillin-resistant Staphylococcus aureus 12-33 after 18 hrs by CLSI broth microdilution method; assay type: functional; settings: 12-33, 18 h
[5] = tested on: Enterococcus faecalis; assay: Antibacterial activity against vancomycin-sensitive Enterococcus faecalis ATCC 29212 after 18 hrs by CLSI broth microdilution method; assay type: functional; settings: ATCC 29212, 18 h
[6] = tested on: Enterococcus faecalis; assay: Antibacterial activity against vancomycin-resistant Enterococcus faecalis 09-9 after 18 hrs by CLSI broth microdilution method; assay type: functional; settings: 09-9, 18 h
[7] = tested on: Enterococcus faecium; assay: Antibacterial activity against vancomycin-resistant Enterococcus faecium ATCC 700221 after 18 hrs by CLSI broth microdilution method; assay type: functional; settings: ATCC 700221, 18 h
[8] = tested on: Enterococcus faecium; assay: Antibacterial activity against vancomycin-sensitive Enterococcus faecium 12-3 after 18 hrs by CLSI broth microdilution method; assay type: functional; settings: 12-3, 18 h
[9] = tested on: Escherichia coli; assay: Antibacterial activity against extended-spectrum beta-lactamase deficient Escherichia coli ATCC 25922 after 18 hrs by CLSI broth microdilution method; assay type: functional; settings: ATCC 25922, 18 h
[10] = tested on: Escherichia coli; assay: Antibacterial activity against extended-spectrum beta-lactamase harboring Escherichia coli 12-15 after 18 hrs by CLSI broth microdilution method; assay type: functional; settings: 12-15, 18 h
[11] = tested on: Klebsiella pneumoniae; assay: Antibacterial activity against extended-spectrum beta-lactamase harboring Klebsiella pneumoniae ATCC 700603 after 18 hrs by CLSI broth microdilution method; assay type: functional; settings: Klebsiella pneumoniae, 700603, 18 h
[12] = tested on: Klebsiella pneumoniae; assay: Antibacterial activity against new delhi metallo-beta-lactamase-1 harboring Klebsiella pneumoniae ATCC BAA-2146 after 18 hrs by CLSI broth microdilution method; assay type: functional; settings: ATCC BAA-2146, 18 h
[13] = tested on: Klebsiella pneumoniae; assay: Antibacterial activity against extended-spectrum beta-lactamase harboring Klebsiella pneumoniae 12-8 after 18 hrs by CLSI broth microdilution method; assay type: functional; settings: 12-8, 18 h
[14] = tested on: Pseudomonas aeruginosa; assay: Antibacterial activity against Pseudomonas aeruginosa ATCC 27853 after 18 hrs by CLSI broth microdilution method; assay type: functional; settings: ATCC 27853, 18 h
[15] = tested on: Acinetobacter calcoaceticus; assay: Antibacterial activity against Acinetobacter calcoaceticus ATCC 19606 after 18 hrs by CLSI broth microdilution method; assay type: functional; settings: ATCC 19606, 18 h
[16] = tested on: Enterobacter cloacae; assay: Antibacterial activity against Enterobacter cloacae ATCC 43560 after 18 hrs by CLSI broth microdilution method; assay type: functional; settings: ATCC 43560, 18 h
[17] = tested on: Proteus mirabilis; assay: Antibacterial activity against Proteus mirabilis 12-6 after 18 hrs by CLSI broth microdilution method; assay type: functional; settings: 12-6, 18 h
[18] = Cytotoxicity against HEK293T cells assessed as reduction in cell viability after 48 hrs by MTS assay; assay type: cell-based, HEK-293T; settings: human
[19] = tested on: Staphylococcus epidermidis; assay: Antibacterial activity against methicillin-sensitive Staphylococcus epidermidis 12-6 after 18 hrs by CLSI broth microdilution method; assay type: functional; settings: 12-6, 18 h
[20] = tested on: Staphylococcus aureus; assay: Antibacterial activity against methicillin-resistant Staphylococcus aureus ATCC 33591 after 18 hrs by CLSI broth microdilution method; assay type: functional; settings: ATCC 33591, 18 h
[21] = tested on: Staphylococcus aureus; assay: Antibacterial activity against methicillin-sensitive Staphylococcus aureus 15 after 18 hrs by CLSI broth microdilution method; assay type: functional; settings: Staphylococcus aureus, 15, 18 h
[22] = tested on: Staphylococcus aureus; assay: Antibacterial activity against methicillin-sensitive Staphylococcus aureus 12-28 after 18 hrs by CLSI broth microdilution method; assay type: functional; settings: 12-28, 18 h
[23] = tested on: Enterococcus faecalis; assay: Antibacterial activity against vancomycin-resistant Enterococcus faecalis ATCC 51299 after 18 hrs by CLSI broth microdilution method; assay type: functional; settings: ATCC 51299, 18 h
[24] = tested on: Enterococcus faecalis; assay: Antibacterial activity against vancomycin-sensitive Enterococcus faecalis 12-5 after 18 hrs by CLSI broth microdilution method; assay type: functional; settings: 12-5, 18 h
[25] = tested on: Enterococcus faecium; assay: Antibacterial activity against vancomycin-resistant Enterococcus faecium 12-1 after 18 hrs by CLSI broth microdilution method; assay type: functional; settings: 12-1, 18 h
[26] = tested on: Escherichia coli; assay: Antibacterial activity against extended-spectrum beta-lactamase deficient Escherichia coli 1515 after 18 hrs by CLSI broth microdilution method; assay type: functional; settings: Escherichia coli, 1515, 18 h
[27] = tested on: Escherichia coli; assay: Antibacterial activity against extended-spectrum beta-lactamase deficient Escherichia coli 12-14 after 18 hrs by CLSI broth microdilution method; assay type: functional; settings: 12-14, 18 h
[28] = tested on: Klebsiella pneumoniae; assay: Antibacterial activity against extended-spectrum beta-lactamase deficient Klebsiella pneumoniae 7 after 18 hrs by CLSI broth microdilution method; assay type: functional; settings: Klebsiella pneumoniae, 7, 18 h
[29] = tested on: Klebsiella pneumoniae; assay: Antibacterial activity against extended-spectrum beta-lactamase deficient Klebsiella pneumoniae 12-4 after 18 hrs by CLSI broth microdilution method; assay type: functional; settings: 12-4, 18 h
[30] = tested on: Pseudomonas aeruginosa; assay: Antibacterial activity against Pseudomonas aeruginosa PAO1 after 18 hrs by CLSI broth microdilution method; assay type: functional; settings: PAO1, 18 h
[31] = tested on: Pseudomonas aeruginosa; assay: Antibacterial activity against Pseudomonas aeruginosa 12-16 after 18 hrs by CLSI broth microdilution method; assay type: functional; settings: 12-16, 18 h
[32] = tested on: Klebsiella aerogenes; assay: Antibacterial activity against Enterobacter aerogenes ATCC 13048 after 18 hrs by CLSI broth microdilution method; assay type: functional; settings: ATCC 13048, 18 h
[33] = tested on: Serratia marcescens; assay: Antibacterial activity against Serratia marcescens ATCC 21074 after 18 hrs by CLSI broth microdilution method; assay type: functional; settings: ATCC 21074, 18 h
[34] = tested on: Providencia rettgeri; assay: Antibacterial activity against Providencia rettgeri ATCC 31052 after 18 hrs by CLSI broth microdilution method; assay type: functional; settings: ATCC 31052, 18 h
[35] = tested on: Proteus vulgaris; assay: Antibacterial activity against Proteus vulgaris ATCC 29905 after 18 hrs by CLSI broth microdilution method; assay type: functional; settings: ATCC 29905, 18 h
[36] = tested on: Stenotrophomonas maltophilia; assay: Antibacterial activity against Stenotrophomonas maltophilia ATCC 13636 after 18 hrs by CLSI broth microdilution method; assay type: functional; settings: ATCC 13636, 18 h
[37] = tested on: Citrobacter freundii; assay: Antibacterial activity against Citrobacter freundii ATCC 43864 after 18 hrs by CLSI broth microdilution method; assay type: functional; settings: ATCC 43864, 18 h

CN(C)C(=N)c1ccc2cc(-c3cnc(-c4cc5ccc(C(=N)N(C)C)cc5[nH]4)cn3)[nH]c2c1
2 mg/L: MIC [25]
128 mg/L: MIC [14] | MIC [33]
13 mg/L: CC50 at 48 h [18]
1 mg/L: MIC [2] | MIC [3] | MIC [20] | MIC [21] | MIC [22]
16 mg/L: MIC [10] | MIC [12] | MIC [13] | MIC [28] | MIC [29] | MIC [32] | MIC [34] | MIC [35]
0.5 mg/L: MIC [1]
64 mg/L: MIC [11] | MIC [17]
32 mg/L: MIC [15] | MIC [36]
4 mg/L: MIC [4] | MIC [5] | MIC [6] | MIC [7] | MIC [8] | MIC [9] | MIC [19] | MIC [26] | MIC [27]
> 128 mg/L: MIC [30] | MIC [31]
8 mg/L: MIC [16] | MIC [23] | MIC [24] | MIC [37]

CNC(=N)c1ccc2cc(-c3ccc(-c4cc5ccc(C(=N)NC)cc5[nH]4)cc3)[nH]c2c1
0.12 mg/L: MIC [1] | MIC [19]
28 mg/L: CC50 at 48 h [18]
4 mg/L: MIC [9]
0.5 mg/L: MIC [7] | MIC [25]
64 mg/L: MIC [11] | MIC [12] | MIC [17] | MIC [30] | MIC [31] | MIC [33] | MIC [34] | MIC [35]
16 mg/L: MIC [14] | MIC [26] | MIC [28] | MIC [32] | MIC [36] | MIC [37]
2 mg/L: MIC [5] | MIC [8] | MIC [23] | MIC [24]
128 mg/L: MIC [15]
1 mg/L: MIC [6]
8 mg/L: MIC [10] | MIC [16] | MIC [27]
0.25 mg/L: MIC [2] | MIC [3] | MIC [4] | MIC [20] | MIC [21] | MIC [22]
32 mg/L: MIC [13] | MIC [29]

CN(C)C(=N)c1ccc2cc(-c3ccc4ccc(-c5cc6ccc(C(=N)N(C)C)cc6[nH]5)cc4c3)[nH]c2c1
8 mg/L: MIC [4]
32 mg/L: MIC [8]
4 mg/L: MIC [1] | MIC [2] | MIC [3] | MIC [20] | MIC [21] | MIC [22]
13.6 mg/L: CC50 at 48 h [18]
64 mg/L: MIC [19]
> 128 mg/L: MIC [9] | MIC [10] | MIC [11] | MIC [12] | MIC [13] | MIC [14] | MIC [15] | MIC [16] | MIC [17] | MIC [26] | MIC [27] | MIC [28] | MIC [29] | MIC [30] | MIC [31] | MIC [32] | MIC [33] | MIC [34] | MIC [35] | MIC [36] | MIC [37]
16 mg/L: MIC [25]
128 mg/L: MIC [5] | MIC [6] | MIC [7] | MIC [23] | MIC [24]
